The values that follow come from US8633325B2, “Method for making insect repellent composition” (E I du Pont de Nemours and Company, priority 2002, dated 2014).

Where “and” joins values, the source holds several entries; their conditions need not be identical. Equal values may be shown once.

In assay [1] the test system is Monomorium destructor ants. Particulars: after 25 seconds of exposure to vapors; cited from earlier work.
The subject of assay [2] is stable flies (Stomoxys calcitrans). The experiment in a line: in vitro membrane repellency test against stable flies. In kind it is in vivo. The note with it: 1% (w/v); for Mean Number of Landings (SEM): 20 minute test; for Mean Number of Landings (SEM) / Mean percentage repellency as calculated from the ANOVA: five replicates; for Mean percentage repellency as calculated from the ANOVA: versus IPA control. The procedure:
(§1) Approximately 250 female Aedes aegypti mosquitoes were introduced into a chamber containing 5 wells, each covered by a Baudruche (animal intestine) membrane. Wells were filled with bovine blood, containing sodium citrate (to prevent clotting) and ATP (72 mg ATP disodium salt per 26 ml of blood), and heated to 37° C. A volume of 25 μl of isopropyl alcohol, containing one of the test specimens shown in Table 2, was applied to each membrane.
(§2) After 5 min, 4 day-old female mosquitoes were added to the chamber. The number of mosquitoes probing the membranes for each treatment was recorded at 2 min intervals over 20 min. Each datum represents the mean of three replicate experiments.
(§3) Percentage repellency was calculated for each repellent treatment at each observation time using the following equation: %Repellency=100−[(T/C)×100] where: • T=the mean number of mosquitoes probing a treated well for that replicate at time tx • C=the mean number of mosquitoes probing the IPA control well at time tx The resulting percentages were then arcsine transformed and an ANOVA was conducted using the calculated repellency from all five replicates. Multiple comparisons of means were conducted using the Student-Newman-Keuls test. The mean arcsines from ANOVA were then converted back into percentages.
DHN derived from hydrogenation of trans,cis-nepetalactone (consisting principally of 1S,9S,5R,6R-5,9-dimethyl-3-20 oxabicyclo[4.3.0]nonan-2-one; Formula 4), designated “Experimental Sample #1”, and the mixture of dihydronepetalactones prepared according to Example 2 (designated Experimental Sample #2; mDHN), were tested for repellency against Stomoxys calcitrans, essentially as described in Example 3. The DHN used here differed from that prepared in Example 4 in that it was derived from hydrogenation (using a Pd/SrCO3 catalyst) of trans,cis-nepetalactone crystallized from commercial oil (Berjé, NJ). In these experiments, an additional positive control compound was included, namely p-menthane-3,8-diol (PMD), obtained from Takasago International Corp. (USA), Rockleigh, N.J. The experimental design is summarized in Table 10, and all data presented is an average of five replicate experiments.

The subject of assay [3] is unfed adult female A. albimanus. The experiment in a line: in vitro membrane repellency test against anopheles mosquitoes. The class given is in vivo, Anopheles albimanus. The note with it: 1% (w/v); for Mean Number of Probes (SEM): 20 minute test; for Mean Number of Probes (SEM) / Mean percentage repellency as calculated from the ANOVA: five replicates; for Mean percentage repellency as calculated from the ANOVA: versus IPA control. The procedure: as §1, §2, §3
DHN derived from hydrogenation of trans,cis-nepetalactone (consisting principally of 1S,9S,5R,6R-5,9-dimethyl-3-oxabicyclo[4.3.0]nonan-2-one; Formula 4) designated “Experimental Sample #1”, and the mixture of dihydronepetalactones prepared according to Example 2 (designated as “Experimental Sample #2”; mDHN) were tested for repellency against one hundred unfed adult female A. albimanus, essentially as described in Example 3. The DHN used here differed from that prepared in Example 4 in that it was derived from hydrogenation (using a Pd/SrCO3 catalyst) of trans,cis-nepetalactone crystallized from commercial oil (Berjé, Bloomfield, N.J.). PMD was again included as a further control. The experimental design is summarized in Table 13, and all data presented is the average of five replicate experiments.

The subject of assay [4] is female Aedes aegypti mosquitoes. The experiment in a line: in vitro membrane repellency test, probing of blood-filled wells. Particulars: for Mean percentage repellency as calculated from the ANOVA: versus IPA control. In kind it is in vivo. The method, then: as §1, §2
The dihydronepetalactone prepared in Example 4, Formula 4, was tested for repellency against Aedes aegypti mosquitoes essentially as described in Example 3. The experimental design is summarized in Table 6, and all data presented is from five replicate experiments.
as §3

The subject of assay [5] is deer tick Ixodes scapularis. Briefly: tick repellency on forearms of human volunteers. Particulars: for statistical comparison of protection times (ANOVA): 30% (w/v); for Mean complete protection time (SEM): 30% (w/v) in isopropanol, 25 μl topically on 4 cm circle. The class given is in vivo. The method, then: A volume of 25 μl of each compound (30% (w/v) in isopropanol) was applied within 4 cm diameter circles drawn on the left forearms of six male human volunteers. Each volunteer had two repellents applied individually within two circles on this forearm; a single 4 cm diameter circle drawn on the other arm was left untreated to act as a control for tick attractiveness. Laboratory-reared unfed nymphs of the deer tick Ixodes scapularis were brought within 1 mm of the untreated circles on cotton buds (Q-tip®). If normal questing behavior was observed, and/or the insect crawled onto the untreated area, it was deemed qualified and then presented to a treated area. A qualified tick which quested at or crawled onto the treated area within 60 s was recorded as having not been repelled. […] Additionally, a qualified tick that crawled onto the treated area but fell off within an additional 60 s was recorded as repelled. Each volunteer had 5 qualified ticks offered to each treated circle at approximately hourly intervals. Exposures continued until 3 out of any group of 5 offered ticks were deemed ‘attracted’. The first non-repelled tick was defined as the first attracted tick which was followed by a second attracted tick within the same or following exposure period. The time of the first confirmed attracted tick was deemed to be the time at which complete repellency ‘broke down’ for that volunteer.

The subject of assay [6] is female Anopheles albimanus mosquitoes. Briefly: mosquito repellency on forearms of human volunteers (test cage). Particulars: for Mean complete protection time (h) (SEM): 1.0 ml on 250 cm^2 forearm. In kind it is in vivo. The procedure:
The DHN derived from hydrogenation of trans,cis-nepetalactone (consisting principally of 1S,9S,5R,6R-5,9-dimethyl-3-oxabicyclo[4.3.0]nonan-2-one; Formula 4), prepared as in Example 7, and the mixture of dihydronepetalactones prepared according to Example 2, were tested for repellency against A. albimanus, with DEET included in the test as a positive control, using adult human volunteers. Test cages (2×2×2 feet) with two sleeved entry ports on each of two opposite sides were used, with a hand rest in the center. The sides and top were screened and the base was equipped with a mirror to facilitate observations. Two hundred adult female mosquitoes, which had never received a blood meal and which had been deprived of their normal diet of 10% sucrose 24 h prior to use, were released into the test cage. Each volunteer was pre-qualified as attractive through having 10 insects land on their untreated forearms within 30 s of insertion into the cage.
A volume of 1.0 ml of each compound (either 5% or 10% (w/v) in isopropanol) was applied to 250 cm^2 areas on the forearms of six male human volunteers, the remainder of the limbs having been made inaccessible to insects. Each volunteer had different repellents applied individually onto each forearm. After allowing the applied repellents to dry for 30 min, the forearms were placed into the test cage for 5 min periods at 30 min intervals, and the number of mosquitoes probing or biting during each exposure period recorded. Breakdown of repellency was recorded for each repellent on each volunteer. Breakdown was defined as the time at which the first confirmed bite occurred; the first confirmed bite was defined as a bite which was followed by a second bite either within the same or the next exposure period. The data is presented in Table 17 as mean complete protection time.

Setting [7] is: 1% (w/v), 20 minute observation period, Example 5, five replicates.
Where [8] appears, read: 1% (w/v), Example 5, five replicates.

In the case of `CC1COC(=O)C2C(C)CCC12` (centres unmarked) [pure dihydronepetalactone, dihydronepetalactone], the “ants that ceased to feed” value in assay [1] is given as 50-60%.
In the case of `CC1CCC(C(C)(C)O)C(O)C1` (centres unmarked) [PMD, p-menthane-3,8-diol], in assay [2], the “time after which compound became ineffective in repelling landings” value was 6 min, the “Mean Number of Landings (SEM)” value is on record as 33.6 (9.21) and the “Mean percentage repellency as calculated from the ANOVA” value was 4.7%. Further, in assay [3], the “repellency comparison between treatments (ANOVA)” value is recorded as “statistically equal in efficacy”, the “Mean Number of Probes (SEM)” value is 47.2 (8.57) and the “Mean percentage repellency as calculated from the ANOVA” value is 11.5%.
For the compound `CCN(CC)C(=O)c1cccc(C)c1` [DEET, N,N-diethyl-m-toluamide], the “Mean Time (min) (SEM) to "First probe"” value in assay [4] (1% (w/v) in isopropyl alcohol, 25 μl on membrane, Example 3, three replicates) is 12 min and 12.0 (0.0) min; in assay [4] (setting [8]) it was 14.8 min and 14.8 (3.2) min. In addition, the “Mean Number of Probes (SEM)” value in assay [4] (setting [7]) was 4.8 (3.2); in assay [4] (1% (w/v), over 20 min, Example 3, three replicates), 4.55 and 4.55 (0.29); in assay [3], 50.4 (13.01). In addition, the “time until mosquito probing initiated (probing density over time, FIG. 9)” value in assay [4] (1% (w/v), Example 5) was 6 min. Further, the “Mean percentage repellency as calculated from the ANOVA” value is 92.4% in assay [4] (setting [8]), 55.5% in assay [2] and 13.3% in assay [3]. For the same compound, the “repellency comparison between treatments (ANOVA)” value is given as “performed statistically equally well” in assay [2] and “statistically equal in efficacy” in assay [3]. Also, the “Mean Number of Landings (SEM)” value in assay [2] is given as 17.8 (4.96). Moreover, in assay [5], the “statistical comparison of protection times (ANOVA)” value is listed as “statistically indistinguishable in the longevity of their repellency”. Further, the “Mean complete protection time (SEM)” value in assay [5] is 124 min and 124.0 (69.95) min. Besides, the “Mean complete protection time (h) (SEM)” value is given as 4.0 (0.5) h in assay [6] (5% (w/v) in isopropanol) and 6.2 (0.63) h in assay [6] (10% (w/v) in isopropanol).
Turning to `C[C@H]1COC(=O)[C@@H]2[C@@H]1CC[C@@H]2C` [DHN, (1S,9S,5R,6R)-5,9-dimethyl-3-oxabicyclo[4.3.0]nonan-2-one], the “Mean Number of Probes (SEM)” value was 23.2 (5.97) in assay [4] (0.2% (w/v), 20 minute observation period, Example 5, five replicates); 16.2 (5.49) in assay [4] (0.5% (w/v), 20 minute observation period, Example 5, five replicates); 4.0 (2.16) in assay [4] (setting [7]); 38.0 (9.71) in assay [3]. Besides, the “Mean Time (min) (SEM) to "First probe"” value in assay [4] (0.2% (w/v), Example 5, five replicates) was 8.4 (1.16) min; in assay [4] (0.2% (w/v), Example 5, five replicates, listed as dihydronepetalactone) it was 8.4 min; in assay [4] (0.5% (w/v), Example 5, five replicates), 9.6 (2.48) min; in assay [4] (0.5% (w/v), Example 5, five replicates, listed as dihydronepetalactone), 9.6 min; in assay [4] (setting [8]), 16.0 (2.09) min; in assay [4] (1% (w/v), Example 5, five replicates, listed as Dihydronepetalactone) it was “approximately 16 min”. For the same compound, the “Mean percentage repellency as calculated from the ANOVA” value is recorded as 66.7% in assay [4] (0.5% (w/v), Example 5); 96.1% in assay [4] (setting [8]); 43.2% in assay [2]; 32.9% in assay [3]. The “time until mosquito probing initiated (probing density over time, FIG. 9)” value in assay [4] (1% (w/v), Example 5) was 10 min. Moreover, the “repellency rank and statistical comparison with 1% DEET” value in assay [4] (1% (w/v), Example 5, ANOVA, Student-Newman-Keuls) is “ranked first in repellency, and was statistically indistinguishable from 1% DEET”. The “repellency comparison between treatments (ANOVA)” value in assay [2] was “performed statistically equally well”; in assay [3], “statistically equal to DEET”. Further, the “Mean Number of Landings (SEM)” value in assay [2] is recorded as 21.2 (3.35). The “statistical comparison of protection times (ANOVA)” value in assay [5] was “statistically indistinguishable in the longevity of their repellency”; in assay [6] (5% and 10% (w/v)) it was “provided lesser protection times”. Besides, in assay [5], the “Mean complete protection time (SEM)” value was 109 min and 109.0 (58.64) min. In addition, the “Mean complete protection time (h) (SEM)” value in assay [6] (5% (w/v) in isopropanol) was 1.8 (0.12) h; in assay [6] (10% (w/v) in isopropanol), 3.5 h and 3.5 (0.29) h.
